# Results from ChEMBL document CHEMBL3885881, “DrugMatrix”.
# Species on record: Rattus norvegicus
# Assay: DrugMatrix - Regimen: Daily Repeat
# Assay type: toxicity, organism-based, Sprague-Dawley
# Design: regimen Daily Repeat, gender Male, age 6-8 weeks
# Conditions: in vivo, po, route oral GAVAGE, vehicle 100 % WATER; for ABSOLUTE BASOPHIL / ABSOLUTE EOSINOPHIL / ABSOLUTE LYMPHOCYTE / ABSOLUTE MONOCYTE / ABSOLUTE SEGMENTED NEUTROPHIL / BASOPHIL / EOSINOPHIL / ERYTHROCYTE COUNT / HEMATOCRIT / HEMOGLOBIN / LEUKOCYTE COUNT / LYMPHOCYTE / MEAN CORPUSCULAR HEMOGLOBIN / MEAN CORPUSCULAR HEMOGLOBIN CONCENTRATION / MEAN CORPUSCULAR VOLUME / MONOCYTE / NEUTROPHIL / NUCLEATED RED BLOOD CELLS / PLATELET COUNT: tissue Blood; for ALANINE AMINOTRANSFERASE / ALBUMIN / ALKALINE PHOSPHATASE / ASPARTATE AMINOTRANSFERASE / BLOOD UREA NITROGEN / CARBON DIOXIDE / CHLORIDE / CHOLESTEROL / CREATINE PHOSPHOKINASE / CREATININE / GLUCOSE / LACTATE DEHYDROGENASE / LIPASE / PHOSPHORUS / POTASSIUM / SODIUM / TOTAL BILIRUBIN / TOTAL PROTEIN / URIC ACID: tissue Plasma
# [1] = 0 mg/kg, 72 h, dose level Control, time 3 day
# [2] = 0 mg/kg, 120 h, dose level Control, time 5 day
# [3] = 11 mg/kg, 72 h, dose level Low, time 3 day
compound,measurement,setting,value
CNS(=O)(=O)Cc1ccc2[nH]cc(CCN(C)C)c2c1,ABSOLUTE BASOPHIL,[1],0 CELLS/uL
same,ABSOLUTE EOSINOPHIL,[1],86.33 CELLS/uL
same,ABSOLUTE LYMPHOCYTE,[1],12090.17 CELLS/uL
same,ABSOLUTE MONOCYTE,[1],166.67 CELLS/uL
same,ABSOLUTE SEGMENTED NEUTROPHIL,[1],1090.17 CELLS/uL
same,BASOPHIL,[1],0%
same,EOSINOPHIL,[1],0.67%
same,ERYTHROCYTE COUNT,[1],5.57 x10E6/uL
same,HEMATOCRIT,[1],35.33%
same,HEMOGLOBIN,[1],13.83 G/DL
same,LEUKOCYTE COUNT,[1],13.43 x10E3/uL
same,LYMPHOCYTE,[1],89.83%
same,MEAN CORPUSCULAR HEMOGLOBIN,[1],24.88 pg
same,MEAN CORPUSCULAR HEMOGLOBIN CONCENTRATION,[1],39.15 G/DL
same,MEAN CORPUSCULAR VOLUME,[1],63.52 fL
same,MONOCYTE,[1],1.17%
same,NEUTROPHIL,[1],8.33%
same,NUCLEATED RED BLOOD CELLS,[1],0 /100WBC
same,PLATELET COUNT,[1],1181.33 x10E3/uL
same,ALANINE AMINOTRANSFERASE,[1],48.33 u/L
same,ALBUMIN,[1],4.1 G/DL
same,ALKALINE PHOSPHATASE,[1],395 u/L
same,ASPARTATE AMINOTRANSFERASE,[1],81.83 u/L
same,BLOOD UREA NITROGEN,[1],15.83 mg/dL
same,CARBON DIOXIDE,[1],24.17 mmol/L
same,CHLORIDE,[1],103.83 MEQ/L
same,CHOLESTEROL,[1],63.67 mg/dL
same,CREATINE PHOSPHOKINASE,[1],372.83 u/L
same,CREATININE,[1],0.18 mg/dL
same,GLUCOSE,[1],173.83 mg/dL
same,LACTATE DEHYDROGENASE,[1],188.33 u/L
same,LIPASE,[1],9.5 u/L
same,PHOSPHORUS,[1],11.95 mg/dL
same,POTASSIUM,[1],5.99 MEQ/L
same,SODIUM,[1],144.43 MEQ/L
same,TOTAL BILIRUBIN,[1],0.15 mg/dL
same,TOTAL PROTEIN,[1],5.95 G/DL
same,URIC ACID,[1],1.82 mg/dL
same,ABSOLUTE BASOPHIL,[2],0 CELLS/uL
same,ABSOLUTE EOSINOPHIL,[2],26.67 CELLS/uL
same,ABSOLUTE LYMPHOCYTE,[2],7583.83 CELLS/uL
same,ABSOLUTE MONOCYTE,[2],131.33 CELLS/uL
same,ABSOLUTE SEGMENTED NEUTROPHIL,[2],674.83 CELLS/uL
same,BASOPHIL,[2],0%
same,EOSINOPHIL,[2],0.33%
same,ERYTHROCYTE COUNT,[2],5.78 x10E6/uL
same,HEMATOCRIT,[2],36.48%
same,HEMOGLOBIN,[2],14.03 G/DL
same,LEUKOCYTE COUNT,[2],8.42 x10E3/uL
same,LYMPHOCYTE,[2],89.83%
same,MEAN CORPUSCULAR HEMOGLOBIN,[2],24.3 pg
same,MEAN CORPUSCULAR HEMOGLOBIN CONCENTRATION,[2],38.52 G/DL
same,MEAN CORPUSCULAR VOLUME,[2],63.15 fL
same,MONOCYTE,[2],1.67%
same,NEUTROPHIL,[2],8.17%
same,NUCLEATED RED BLOOD CELLS,[2],0 /100WBC
same,PLATELET COUNT,[2],1186.67 x10E3/uL
same,ALANINE AMINOTRANSFERASE,[2],50.17 u/L
same,ALBUMIN,[2],4.07 G/DL
same,ALKALINE PHOSPHATASE,[2],367.5 u/L
same,ASPARTATE AMINOTRANSFERASE,[2],81.67 u/L
same,BLOOD UREA NITROGEN,[2],16.17 mg/dL
same,CARBON DIOXIDE,[2],32.33 mmol/L
same,CHLORIDE,[2],101.5 MEQ/L
same,CHOLESTEROL,[2],65.33 mg/dL
same,CREATINE PHOSPHOKINASE,[2],255.33 u/L
same,CREATININE,[2],0.17 mg/dL
same,GLUCOSE,[2],139.33 mg/dL
same,LACTATE DEHYDROGENASE,[2],95 u/L
same,LIPASE,[2],10.5 u/L
same,PHOSPHORUS,[2],10.38 mg/dL
same,POTASSIUM,[2],6.11 MEQ/L
same,SODIUM,[2],145.55 MEQ/L
same,TOTAL BILIRUBIN,[2],0.17 mg/dL
same,TOTAL PROTEIN,[2],5.98 G/DL
same,URIC ACID,[2],0.93 mg/dL
same,ABSOLUTE BASOPHIL,[3],0 CELLS/uL
same,ABSOLUTE EOSINOPHIL,[3],39 CELLS/uL
same,ABSOLUTE LYMPHOCYTE,[3],10656.67 CELLS/uL
same,ABSOLUTE MONOCYTE,[3],38.67 CELLS/uL
same,ABSOLUTE SEGMENTED NEUTROPHIL,[3],1065.67 CELLS/uL
same,BASOPHIL,[3],0%
same,EOSINOPHIL,[3],0.33%
same,ERYTHROCYTE COUNT,[3],5.76 x10E6/uL
same,HEMATOCRIT,[3],36.33%
same,HEMOGLOBIN,[3],13.93 G/DL
same,LEUKOCYTE COUNT,[3],11.8 x10E3/uL
same,LYMPHOCYTE,[3],90.33%
same,MEAN CORPUSCULAR HEMOGLOBIN,[3],24.2 pg
same,MEAN CORPUSCULAR HEMOGLOBIN CONCENTRATION,[3],38.37 G/DL
same,MEAN CORPUSCULAR VOLUME,[3],63.07 fL
same,MONOCYTE,[3],0.33%
same,NEUTROPHIL,[3],9%
same,NUCLEATED RED BLOOD CELLS,[3],0 /100WBC
same,PLATELET COUNT,[3],1289 x10E3/uL
same,ALANINE AMINOTRANSFERASE,[3],45 u/L
same,ALBUMIN,[3],3.83 G/DL
same,ALKALINE PHOSPHATASE,[3],321.33 u/L
same,ASPARTATE AMINOTRANSFERASE,[3],76.67 u/L
same,BLOOD UREA NITROGEN,[3],14.67 mg/dL
same,CARBON DIOXIDE,[3],26 mmol/L
same,CHLORIDE,[3],103.33 MEQ/L
same,CHOLESTEROL,[3],64.67 mg/dL
same,CREATINE PHOSPHOKINASE,[3],413.33 u/L
same,CREATININE,[3],0.14 mg/dL
same,GLUCOSE,[3],155 mg/dL
same,LACTATE DEHYDROGENASE,[3],166.33 u/L
same,LIPASE,[3],8.67 u/L
same,PHOSPHORUS,[3],12.6 mg/dL
same,POTASSIUM,[3],6.24 MEQ/L
same,SODIUM,[3],143.73 MEQ/L
same,TOTAL BILIRUBIN,[3],0.17 mg/dL
same,TOTAL PROTEIN,[3],5.63 G/DL
same,URIC ACID,[3],1.4 mg/dL
